Laboratory results as given in ChEMBL document CHEMBL4346696, “PIM kinase inhibitors: Structural and pharmacological perspectives” (Eur J Med Chem, 2019).
pIC50, pKi: −log10 of the molar value. One block for each compound: values may come before it.

Tests used:
Homo sapiens [1] = species on record: Homo sapiens; experiment: Selectivity ratio of IC50 for PI3kalpha (unknown origin) to Ki for PIM1 (unknown origin)
Homo sapiens [2] = species on record: Homo sapiens; experiment: Selectivity ratio of IC50 for PI3kdelta (unknown origin) to Ki for PIM1 (unknown origin)
Homo sapiens [3] = species on record: Homo sapiens; experiment: Selectivity ratio of IC50 for PI3kgamma (unknown origin) to Ki for PIM1 (unknown origin)
HT-29 = experiment: Cytotoxicity against human HT-29 cells after 24 hrs by MTT assay; format: functional, cell-based; settings: HT-29, 24 h
[4] = Cytotoxicity against human […] cells after 24 hrs by MTT assay; format: functional, cell-based
MCF7 = experiment: Cytotoxicity against human MCF7 cells after 24 hrs by MTT assay; format: functional, cell-based; settings: MCF7, 24 h
[5] = target: T1, Serine/threonine-protein kinase pim-1 (Homo sapiens, UniProt P11309); experiment: Inhibition of PIM1 (unknown origin)
T1 sequence (P11309 whole entry): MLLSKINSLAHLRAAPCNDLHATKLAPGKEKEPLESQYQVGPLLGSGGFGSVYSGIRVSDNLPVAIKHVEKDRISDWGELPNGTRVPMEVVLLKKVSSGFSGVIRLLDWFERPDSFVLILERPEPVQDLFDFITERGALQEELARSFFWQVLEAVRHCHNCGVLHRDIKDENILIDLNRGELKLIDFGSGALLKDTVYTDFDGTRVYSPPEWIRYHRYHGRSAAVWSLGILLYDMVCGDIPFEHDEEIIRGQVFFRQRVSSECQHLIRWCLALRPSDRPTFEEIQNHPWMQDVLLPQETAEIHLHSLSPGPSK

[6] = target: T1, Serine/threonine-protein kinase pim-1; experiment: Inhibition of N-terminal GST-tagged recombinant human full length Pim-1 expressed in Escherichia coli cells

pIC50 [5]: > 6.82
Structure (SMILES): CSc1ncc(-c2cc(-c3ccc(Br)cc3)[nH]c(=N)c2C#N)n1Cc1ccccc1
pIC50 (HT-29): < 3.89

pKi [6]: 8.11
Structure (SMILES): O=C1NC(=O)/C(=C/c2ccnc(N3CCC(CNCc4ccc5ccccc5n4)CC3)n2)S1

pIC50 [5]: > 6.82
Structure (SMILES): CSc1ncc(-c2cc(-c3ccc(Br)cc3)[nH]c(=O)c2C#N)n1Cc1ccccc1
pIC50 (HT-29): < 3.89

Continued, compound first:

Structure (SMILES): CC(C)(O)[C@H]1CC[C@H](Nc2ccc3ncc(-c4cccc(C(F)(F)F)c4)n3n2)CC1
Ratio (Homo sapiens [1]): 10
Ratio (Homo sapiens [2]): 10
Ratio (Homo sapiens [3]): 10

Structure (SMILES): CSc1ncc(-c2cc(-c3ccc4c(c3)OCO4)[nH]c(=N)c2C#N)n1Cc1ccccc1
pIC50 (HT-29): < 3.89

Structure (SMILES): COc1cc(C2NC(=O)c3sc4nc(C)c(Br)c(C)c4c3N2)ccc1O (centres undefined)
pIC50 [4]: 5.75 to 7.22
pIC50 (MCF7): 5.75 to 7.22

Structure (SMILES): CSc1ncc(-c2cc(-c3ccc4c(c3)OCO4)[nH]c(=O)c2C#N)n1Cc1ccccc1
pIC50 (HT-29): < 3.89

Structure (SMILES): Cc1nc2sc3c(c2c(C)c1Br)NC(c1ccc(O)c(O)c1)NC3=O (centres undefined)
pIC50 [4]: 5.75 to 7.22
pIC50 (MCF7): 5.75 to 7.22
